Laboratory results from patent publication US8952024B2, “Herbicidal pyrimidone derivatives” (E I du Pont de Nemours and Company, priority 2009, dated 2015).

Legend:
Type in all cases: in vivo
soybean (Glycine max) = test: Test B pre-/postemergence plant response
Method in brief: (§1)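 Response scores were assigned visually after 13 to 15 days in a greenhouse, comparing treated pots with controls on a 0–100 scale where 100 denotes complete control. Preemergence treatments went onto freshly seeded loam/sand soil; postemergence treatments onto plants 2 to 18 cm tall.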

[1] = tested on: wheat (Triticum aestivum); test: Test B pre-/postemergence plant response
Method in brief: as §1

[2] = tested on: morningglory (Ipomoea coccinea); test: Test B pre-/postemergence plant response
Method in brief: as §1

[3] = tested on: cocklebur (Xanthium strumarium); test: Test B pre-/postemergence plant response
Method in brief: as §1

[4] = tested on: large crabgrass (Digitaria sanguinalis); test: Test A pre-/postemergence plant response
Method in brief: (§2)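 Formulated test chemicals (non-phytotoxic solvent, surfactant) were sprayed onto soil right after planting and simultaneously onto young plants at one to two leaves, 2 to 10 cm tall. Plants stayed in the greenhouse about ten days; injury was then visually scored against untreated controls, from 0 (no effect) to 100 (complete control).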

[5] = tested on: wheat (Triticum aestivum); test: Test A pre-/postemergence plant response
Method in brief: as §2

[6] = tested on: giant foxtail (Setaria faberii); test: Test A pre-/postemergence plant response
Method in brief: as §2

[7] = tested on: velvetleaf (Abutilon theophrasti); test: Test A pre-/postemergence plant response
Method in brief: as §2

[8] = tested on: morningglory (Ipomoea spp.); test: Test A pre-/postemergence plant response
Method in brief: as §2

[9] = tested on: barnyardgrass (Echinochloa crus-galli); test: Test A pre-/postemergence plant response
Method in brief: as §2

corn (Zea mays) = test: Test A pre-/postemergence plant response
Method in brief: as §2

[10] = tested on: pigweed (Amaranthus retroflexus); test: Test A pre-/postemergence plant response
Method in brief: as §2

[11] = 31 g ai/ha, postemergence, scale 0 to 100, 0 is no effect, 100 is complete control
[12] = 62 g ai/ha, postemergence, 0 is no effect, 100 is complete control, 13 to 15 days
[13] = Postemergence, 125 g ai/ha, visual rating after 13 to 15 days, scale 0 (no effect) to 100 (complete control)
[14] = Postemergence, 250 g ai/ha, scale 0 to 100 (0 no effect, 100 complete control)
[15] = Preemergence, 31 g ai/ha, scale 0 to 100 (0 no effect, 100 complete control)
[16] = Preemergence, 62 g ai/ha, scale 0 to 100, 0 no effect, 100 complete control
[17] = Preemergence, 125 g ai/ha, scale 0 to 100, 0 no effect, 100 complete control
[18] = Preemergence, 250 g ai/ha, 0 to 100 scale
[19] = Postemergence, 125 g ai/ha, 0 to 100 scale where 0 is no effect and 100 is complete control
[20] = Postemergence, 500 g ai/ha, 0 to 100 scale, 0 = no effect, 100 = complete control, approx. ten days
[21] = Preemergence, 125 g ai/ha, 0 to 100 scale, 0 = no effect, 100 = complete control
[22] = Preemergence, 500 g ai/ha, visual injury, 0 to 100 scale (0 no effect, 100 complete control), approx. ten days

CCCCn1c(CCC)ncc(C(=O)C2=C(O)CCCC2=O)c1=O [Compound 75] was tested, and the “Plant response rating, Soybean” value (soybean (Glycine max); [11]) was 80, the “Soybean plant response rating (0 to 100 scale)” value (soybean (Glycine max); [12]) was 95 and the “Plant response rating, Soybean” value (soybean (Glycine max); [13]) was 98. For the same molecule, the “Plant response rating, Soybean” value (soybean (Glycine max); [14]) was 98, the “Plant response rating, Wheat” value [1, 11] was 0 and the “Wheat plant response rating (0 to 100 scale)” value [1, 12] was 0. For the same molecule, the “Plant response rating, Wheat” value [1, 13] was 10, the “Plant response rating, Wheat” value [1, 14] was 25 and the “Plant response rating, Wheat” value [1, 15] was 0. The “Plant response rating, Wheat” value [1, 16] was 0, the “Plant response rating, Wheat” value [1, 17] was 0 and the “Wheat plant response rating” value [1, 18] was 0. For the same molecule, the “Plant response rating, Morningglory” value [2, 11] was 20, the “Morningglory plant response rating (0 to 100 scale)” value [2, 12] was 90 and the “Plant response rating, Morningglory” value [2, 13] was 95. For the same molecule, the “Plant response rating, Morningglory” value [2, 14] was 95, the “Plant response rating, Morningglory” value [2, 15] was 0 and the “Plant response rating, Morningglory” value [2, 16] was 60. For the same molecule, the “Plant response rating, Morningglory” value [2, 17] was 75, the “Morningglory plant response rating” value [2, 18] was 90 and the “Plant response rating, Cocklebur” value [3, 11] was 40. For the same molecule, the “Cocklebur plant response rating (0 to 100 scale)” value [3, 12] was 80, the “Plant response rating, Cocklebur” value [3, 13] was 95 and the “Plant response rating, Cocklebur” value [3, 14] was 95. The “Plant response rating, Cocklebur” value [3, 15] was 10, the “Plant response rating, Cocklebur” value [3, 16] was 20 and the “Plant response rating, Cocklebur” value [3, 17] was 75. For the same molecule, the “Cocklebur plant response rating” value [3, 18] was 90, the “Plant response rating, Crabgrass, Large” value [4, 19] was 90 and the “Plant response rating, Crabgrass, Large” value [4, 20] was 90. For the same molecule, the “Plant response rating, Crabgrass, Large” value [4, 21] was 90, the “Plant response rating, Crabgrass, Large” value [4, 22] was 100 and the “Plant response rating, Wheat” value [5, 19] was 0. For the same molecule, the “Plant response rating, Wheat” value [5, 20] was 50, the “Plant response rating, Wheat” value [5, 21] was 0 and the “Plant response rating, Wheat” value [5, 22] was 0. The “Plant response rating, Foxtail, Giant” value [6, 19] was 80, the “Plant response rating, Foxtail, Giant” value [6, 20] was 90 and the “Plant response rating, Foxtail, Giant” value [6, 21] was 50. For the same molecule, the “Plant response rating, Foxtail, Giant” value [6, 22] was 70, the “Plant response rating, Velvetleaf” value [7, 19] was 100 and the “Plant response rating, Velvetleaf” value [7, 20] was 100. For the same molecule, the “Plant response rating, Velvetleaf” value [7, 21] was 90, the “Plant response rating, Velvetleaf” value [7, 22] was 100 and the “Plant response rating, Morningglory” value [8, 19] was 90. The “Plant response rating, Morningglory” value [8, 20] was 100, the “Plant response rating, Morningglory” value [8, 21] was 60 and the “Plant response rating, Morningglory” value [8, 22] was 90. For the same molecule, the “Plant response rating, Barnyardgrass” value [9, 19] was 80, the “Plant response rating, Barnyardgrass” value [9, 20] was 90 and the “Plant response rating, Barnyardgrass” value [9, 21] was 40. For the same molecule, the “Plant response rating, Barnyardgrass” value [9, 22] was 80, the “Plant response rating, Corn” value (corn (Zea mays); [19]) was 0 and the “Plant response rating, Corn” value (corn (Zea mays); [20]) was 50. The “Plant response rating, Corn” value (corn (Zea mays); [21]) was 0, the “Plant response rating, Corn” value (corn (Zea mays); [22]) was 0 and the “Plant response rating, Pigweed” value [10, 19] was 100. The “Plant response rating, Pigweed” value [10, 20] was 100, the “Plant response rating, Pigweed” value [10, 21] was 100 and the “Plant response rating, Pigweed” value [10, 22] was 100.
